Structures are written as SMILES.

From article PMC12040169 (PLOS Biology, 2025) come the findings set out here.

A short description of this series: in vitro. The following applies: human, hela cells, % viability.
By viability is commonly meant a read-out of living cells in per cent, often relative to untreated cells. For the compound `Clc1ccc(CN2CCCN(c3nccc(OCC4COc5ccccc5O4)n3)CC2)cc1` (centres unmarked) [CBK084038], the viability at 28.5 h, 10 µM came out at 84.9%. For `CS(=O)(=O)N1CC2(CCN(Cc3ccc(Cl)c(Cl)c3)CC2)c2ccccc21` [CBK084043] the value was 102%; for `Clc1ccc(COc2cc(N3CCCN(CC4CC4)CC3)ncn2)cc1Cl` [CBK084070], 90.8%.

Consider `Cc1cc(COc2ccnc(N3CCCN(CC4CC4)CC3)n2)no1` [CBK084073], for which the viability at 28.5 h, 10 µM amounted to 91.1%. For `c1cncc(COc2ccnc(N3CCCN(Cc4ccc5c(c4)OCO5)CC3)n2)c1` [CBK084112] the value was 92.5%; for `COc1ccnc(N2CCCN(CCN3CCOCC3)CC2)n1` [CBK084120], 119%. Then `c1cncc(COc2ccnc(N3CCCN(CCN4CCOCC4)CC3)n2)c1` [CBK084122], with 88.5%; and `Cc1cc(COc2ccnc(N3CCCN(CCCC#N)CC3)n2)no1` [CBK084144], with 96.8%.

`COc1ccc(Oc2nccc(N3CCCN(CCc4ccc5ccccc5c4)CC3)n2)cc1OC` [CBK084164]: the viability at 28.5 h, 10 µM is 87%. For `Cc1cc(COc2nccnc2N2CCN(CC(N)=O)CC2)no1` [CBK084192] the value was 91%; for `Cc1cc(COc2nccnc2N2CCN(CCCO)CC2)no1` [CBK084197], 89.6%; for `Cc1cc(COc2nccnc2N2CCN(CCCn3c(=O)[nH]c4ccccc43)CC2)no1` [CBK084199], 107%.

Regarding `COc1ccc(CCN2CCN(c3nccnc3OCc3cc(C)on3)CC2)cc1OC` [CBK084207], the viability at 28.5 h, 10 µM stood at 105%. For `COc1nccnc1N1CCN(Cc2ccc(Cl)c(Cl)c2)CC1` [CBK084209] the value was 92.1%. On to `COc1nccnc1N1CCN(Cc2ccccc2)CC1` [CBK084210], for which the viability at 28.5 h, 10 µM stood at 90%. Turning to `COc1nccnc1N1CCN(Cc2cccnc2)CC1` [CBK084213], the viability at 28.5 h, 10 µM worked out at 91.2%. For `COc1nccnc1N1CCN(Cc2ccc([N+](=O)[O-])cc2)CC1` [CBK084217] the value was 103%; for `COc1nccnc1N1CCN(CC(=O)Nc2c(C)cccc2C)CC1` [CBK084220], 89.1%. For `COc1nccnc1N1CCN(CCCC#N)CC1` [CBK084225] the value was 86.9%. Then `COc1nccnc1N1CCN(CCSC)CC1` [CBK084227], with 90.2%; and `COc1nccnc1N1CCN(CCc2ccccc2)CC1` [CBK084228], with 102%; and `COc1nccnc1N1CCN(CCOc2ccccc2)CC1` [CBK084230], with 94.1%. With `COc1nccnc1N1CCN(CCc2c[nH]c3ccccc23)CC1` [CBK084231], the viability at 28.5 h, 10 µM was 89.2%. For `COc1nccnc1OC1CCN(Cc2ccccc2)CC1` [CBK084238] the value was 103%. For `COc1nccnc1OC1CCN(Cc2ccc(Cl)cc2)CC1` [CBK084240] the value was 98.7%; for `COc1nccnc1OC1CCN(Cc2ccc([N+](=O)[O-])cc2)CC1` [CBK084245], 105%. Then `COc1nccnc1OC1CCN(Cc2ccccc2-c2ccccc2)CC1` [CBK084246], with 87.7%; and `COc1nccnc1OC1CCN(CC(=O)Nc2c(C)cccc2C)CC1` [CBK084249], with 96.1%; and `COc1nccnc1OC1CCN(CCCC#N)CC1` [CBK084255], with 90%. For the compound `COc1nccnc1OC1CCN(CCOc2ccccc2)CC1` [CBK084260], the viability at 28.5 h, 10 µM came to 94.4%. For `COc1nccnc1OC1CCN(CCc2c[nH]c3ccccc23)CC1` [CBK084261] the value was 93.6%; for `COc1nccnc1OC1CCN(CC2CCCCC2)CC1` [CBK084263], 96.2%. Then `CS(=O)(=O)Nc1nccnc1N1CCN(Cc2ccccc2)CC1` [CBK084268], with 96.5%; and `CC(C)c1ccc(CN2CCN(c3nccnc3NS(C)(=O)=O)CC2)cc1` [CBK084271], with 91%; and `COc1ccc(CN2CCN(c3nccnc3NS(C)(=O)=O)CC2)cc1` [CBK084273], with 88.7%. With `CS(=O)(=O)Nc1nccnc1OC1CCN(CC2CCCCC2)CC1` [CBK084284], the viability at 28.5 h, 10 µM amounted to 89.9%. With `COc1ccc(CCN2CCC(Oc3nccnc3NS(C)(=O)=O)CC2)cc1OC` [CBK084285], the viability at 28.5 h, 10 µM was found to be 103%. For `CS(=O)(=O)Nc1nccnc1OC1CCN(CCc2ccccn2)CC1` [CBK084286] the value was 109%.

For `O=C1CCC(=O)N1CCOc1nccnc1N1CCN(Cc2ccccc2)CC1` [CBK084288], the viability at 28.5 h, 10 µM is 87.9%.

As to `O=C1CCC(=O)N1CCOc1nccnc1N1CCN(Cc2ccccc2F)CC1` [CBK084289], the viability at 28.5 h, 10 µM came to 97.8%. For `O=C1CCC(=O)N1CCOc1nccnc1N1CCN(Cc2ccc(Cl)cc2)CC1` [CBK084290] the value was 96.1%; for `N#CCCCN1CCN(c2nccnc2OCCN2C(=O)CCC2=O)CC1` [CBK084299], 102%; for `O=C1CCC(=O)N1CCOc1nccnc1N1CCN(CCc2ccccc2)CC1` [CBK084302], 99.4%. For `O=C1CCC(=O)N1CCOc1nccnc1N1CCN(CCc2c[nH]c3ccccc23)CC1` [CBK084304] the value was 95.5%; for `O=C1CCC(=O)N1CCOc1nccnc1N1CCN(CC2CC2)CC1` [CBK084305], 93.9%. Take `O=C1CCC(=O)N1CCOc1nccnc1N1CCN(CC2CCCCC2)CC1` [CBK084306]: the viability at 28.5 h, 10 µM amounted to 88.9%. Then `O=C1CCC(=O)N1CCOc1nccnc1N1CCN(CCc2ccc3ccccc3c2)CC1` [CBK084307], with 96.4%. Then `O=C1CCC(=O)N1CCOc1nccnc1N1CCN(CCc2ccccn2)CC1` [CBK084309], with 109%. Consider `Nc1ccc(-c2ccccc2)c2ccccc12` [CBK084312], for which the viability at 28.5 h, 10 µM was found to be 97.1%. For `Nc1ccc(-c2cc(F)cc(F)c2)c2ccccc12` [CBK084314] the value was 93.2%; for `COc1cc(F)ccc1-c1ccc(N)c2ccccc12` [CBK084319], 103%; for `Nc1ccc(-c2cccc(C(F)(F)F)c2)c2ccccc12` [CBK084324], 80%. For `Nc1ccc(-c2ccc3c(c2)OCCCO3)c2ccccc12` [CBK084325] the value was 87.9%. For `CS(=O)(=O)c1ccc(-c2ccc(N)c3ccccc23)cc1` [CBK084326] the value was 95.4%; for `COc1cc(-c2ccc(N)c3ccccc23)cc(OC)c1OC` [CBK084332], 83.5%.

With `O=C1CCC(=O)N1CCOc1nccnc1OC1CCN(Cc2ccc(C(F)(F)F)cc2)CC1` [CBK084341], the viability at 28.5 h, 10 µM came out at 96%. For `N#CCCCN1CCC(Oc2nccnc2OCCN2C(=O)CCC2=O)CC1` [CBK084349] the value was 99.4%; for `O=C1CCC(=O)N1CCOc1nccnc1OC1CCN(CCCn2c(=O)[nH]c3ccccc32)CC1` [CBK084350], 90.2%; for `CSCCN1CCC(Oc2nccnc2OCCN2C(=O)CCC2=O)CC1` [CBK084351], 100%.
